The values below come from patent US8642597B2, “Pyrazole compounds for controlling invertebrate pests” (BASF SE, priority 2007, dated 2014).

One may read the mortality as the percentage killed. The low end stands for more survivors, the high end for fewer survivors.

Common to all, as to assay type: in vivo
In assay [1] the test system is Cotton Aphid (aphis gossypii, Mixed Life Stages). Briefly: Cotton aphid (aphis gossypii, mixed life stages), cotyledon dip test. Conditions: 120 h, mortality counts after 5 days, in comparison with untreated controls. The text has this: (§1) The active compounds were formulated in 50:50 (vol:vol) acetone:water and 100 ppm Kinetica™ surfactant.
Cotton plants at the cotyledon stage (one plant per pot) were infested by placing a heavily infested leaf from the main colony on top of each cotyledon. The aphids were allowed to transfer to the host plant overnight, and the leaf used to transfer the aphids was removed. The cotyledons were dipped in the test solution and allowed to dry. After 5 days, mortality counts were made.

Assay [2] concerns Green Peach Aphid (Myzus persicae, Mixed Life Stages). Briefly: Green peach aphid (Myzus persicae, mixed life stages), pepper leaf dip test. Conditions: foliar, 120 h, after 5 days, in comparison with untreated controls.
Text: as §1
Pepper plants in the 2nd leaf-pair stage (variety ‘California Wonder’) were infested with approximately 40 laboratory-reared aphids by placing infested leaf sections on top of the test plants. The leaf sections were removed after 24 hr. The leaves of the intact plants were dipped into gradient solutions of the test compound and allowed to dry. Test plants were maintained under fluorescent light (24 hour photoperiod) at about 25° C. and 20-40% relative humidity. Aphid mortality on the treated plants, relative to mortality on check plants, was determined after 5 days.

In assay [3] the test system is Cowpea Aphid (aphis craccivora). In words: Cowpea aphid (aphis craccivora), spray on potted cowpea plants. Particulars: population reduction assessed after 24, 72 and 120 hours, in comparison with untreated controls. On the procedure:
The active compounds were formulated in 50:50 (vol:vol) acetone:water. The test solution was prepared at the day of use.
Potted cowpea plants colonized with 100-150 aphids of various stages were sprayed after the pest population had been recorded. Population reduction was assessed after 24, 72, and 120 hours.

Assay [4] deals with Vetch Aphid (Megoura viciae). Briefly: Vetch aphid (Megoura viciae), bean leaf disk microtiterplate test. Particulars: foliar, 144 h, concentration of the test solution 2500 mg/L, 6 days. As for the experimental part:
The active compounds were formulated in 1:3 (vol:vol) DMSO:water with different concentrations of formulated compounds.
Bean leaf disks were placed into microtiterplates filled with 0.8% agar-agar and 2.5 ppm OPUS™. The leaf disks were sprayed with 2.5 μl of the test solution and 5 to 8 adult aphids were placed into the microtiterplates which were then closed and kept at 23±1° C. and 50±5% relative humidity under fluorescent light for 6 days. Mortality was assessed on the basis of vital, reproduced aphids. Aphid mortality and fecundity was then visually assessed.

Assay [5] concerns Boll Weevil (Anthonomus grandis). Briefly: Boll weevil (Anthonomus grandis), insect diet microtiter plate test. Conditions: 120 h, concentration of the test solution 2500 mg/L, egg and larval mortality after 5 days. As for the experimental part:
The compounds were formulated in 75:25 (vol:vol) water:DMSO.
For evaluating control of boll weevil (Anthonomus grandis) the test unit consisted of 24-well-microtiter plates containing an insect diet and 20-30 A. grandis eggs. Different concentrations of formulated compounds were sprayed onto the insect diet at 20 μl, using a custom built micro atomizer, at two replications. After application, the microtiter plates were incubated at 23±1° C. and 50±5% relative humidity for 5 days. Egg and larval mortality was then visually assessed.

Assay [6] has as its system Southern Armyworm (spodoptera eridania, 2nd instar larvae). In words: Southern armyworm (spodoptera eridania, 2nd instar larvae), lima bean leaf dip test. Conditions: foliar, 96 h, at 4 days, in comparison with untreated controls. On the procedure:
as §1
A pair of first true leaves of Sieva lima bean was dipped in the test solution and allowed to dry. The leaf was then placed in a plastic perforated zip enclosure bag and ten 2nd instar larvae were added. At 4 days, observations were made of mortality and reduced feeding.

Regarding `Cn1ncc(C(=O)Nc2cccnc2)c1C(F)F` [Compound 167], the values for the mortality at 300 ppm in assay [1], in assay [2] and in assay [3] were ≥ 75%, ≥ 50% and ≥ 75%, respectively. The mortality at 2500 µg/mL is ≥ 80% in assay [4] and 100% in assay [5].

With `CN(C(=O)c1cnn(C)c1C(F)(F)F)c1cccnc1` [Compound 174], the mortality at 300 ppm in assay [1] was ≥ 75%; in assay [2], ≥ 50%; in assay [3], ≥ 75%; in assay [6], ≥ 50%.

On to `O=C(Nc1cccnc1)c1cnn(-c2ccc(F)cc2)c1C(F)(F)F` [Compound 228], for which the values for the mortality at 300 ppm in assay [1], in assay [2] and in assay [6] were ≥ 75%, ≥ 50% and ≥ 50%, respectively. Further, the mortality at 2500 µg/mL in assay [4] was ≥ 80%.

Consider `Cn1cc(C(=O)Nc2cccnc2)cn1` [Compound 107], for which the mortality at 300 ppm in assay [1] is ≥ 75%; in assay [2], ≥ 50%; in assay [3], ≥ 75%. Also, the mortality at 2500 µg/mL in assay [4] was ≥ 80%; in assay [5], 100%.

On to `CCS/C(=N\c1cccnc1)c1cn(C)nc1C(F)(F)F` [Compound 243], for which the mortality at 300 ppm in assay [1] was ≥ 75%; in assay [2] it was ≥ 50%; in assay [3], ≥ 75%. Besides, the mortality at 2500 µg/mL was ≥ 80% in assay [4] and 100% in assay [5].

As to `CN(C(=O)c1cnn(C(F)(F)F)c1)c1cccnc1` [Compound 233], the figures for the mortality at 300 ppm in assay [1], in assay [2] and in assay [6] were ≥ 75%, ≥ 50% and ≥ 50%, respectively.

On to `CCCn1cc(C(=O)Nc2cccnc2)cn1` [Compound 108], for which the results for the mortality at 300 ppm in assay [1], in assay [2] and in assay [3] were ≥ 75%, ≥ 50% and ≥ 75%, respectively. Moreover, the mortality at 2500 µg/mL is ≥ 80% in assay [4] and 100% in assay [5].

Consider `Cc1cccc(-n2ncc(C(=O)Nc3cccnc3)c2C(F)F)c1` [Compound 158], for which the mortality at 300 ppm was ≥ 75% in assay [1], ≥ 50% in assay [2], ≥ 75% in assay [3] and ≥ 50% in assay [6]. In addition, the mortality at 2500 µg/mL in assay [4] is ≥ 80%.

For the compound `COc1ccccc1-n1ncc(C(=O)Nc2cccnc2)c1C(F)F` [Compound 150], the results for the mortality at 300 ppm in assay [1] and in assay [2] were ≥ 75% and ≥ 50%, respectively. Besides, the mortality at 2500 µg/mL was ≥ 80% in assay [4] and 100% in assay [5].

Regarding `Cn1cc(C(=O)Nc2cccnc2)c(C(F)F)n1` [Compound 170], the mortality at 300 ppm in assay [1] is ≥ 75%; in assay [2], ≥ 50%; in assay [3], ≥ 75%; in assay [6], ≥ 50%.

`Cc1ccc(-n2ncc(C(=O)Nc3cccnc3)c2C(F)F)cc1` [Compound 138]: the figures for the mortality at 300 ppm in assay [1], in assay [2] and in assay [3] were ≥ 75%, ≥ 50% and ≥ 75%, respectively. Moreover, the values for the mortality at 2500 µg/mL in assay [4] and in assay [5] were ≥ 80% and 100%, respectively.

As for `O=C(Nc1cccnc1)c1cnn(C(F)F)c1` [Compound 213], the mortality at 300 ppm in assay [1] was ≥ 75%; in assay [2], ≥ 50%; in assay [3] it was ≥ 75%; in assay [6] it was ≥ 50%.

For `Cc1c(C(=O)Nc2cccnc2)cnn1C` [Compound 179], the mortality at 300 ppm in assay [1] is ≥ 75%; in assay [2], ≥ 50%; in assay [3] it was ≥ 75%; in assay [6], ≥ 50%.

Turning to `O=C(Nc1cccnc1)c1cnn(C(F)F)c1C(F)(F)F` [Compound 190], the mortality at 300 ppm in assay [1] is ≥ 75%; in assay [2], ≥ 50%; in assay [3] it was ≥ 75%. The mortality at 2500 µg/mL in assay [4] is ≥ 80%; in assay [5] it was 100%.

Turning to `Cc1nn(C(F)F)cc1C(=O)Nc1cccnc1` [Compound 209], the mortality at 300 ppm was ≥ 75% in assay [1], ≥ 50% in assay [2], ≥ 75% in assay [3] and ≥ 50% in assay [6].

Turning to `CC(C)Cn1cc(C(=O)Nc2cccnc2)cn1` [Compound 98], the mortality at 300 ppm in assay [1] was ≥ 75%; in assay [2], ≥ 50%; in assay [3], ≥ 75%; in assay [6] it was ≥ 50%. The mortality at 2500 µg/mL in assay [4] is ≥ 80%.

With `CN(C(=O)c1cnn(C(F)F)c1C(F)F)c1cccnc1` [Compound 189], the mortality at 300 ppm in assay [1] was ≥ 75%; in assay [2] it was ≥ 50%; in assay [3], ≥ 75%; in assay [6] it was ≥ 50%. Moreover, the mortality at 2500 µg/mL is ≥ 80% in assay [4] and 100% in assay [5].

On to `O=C(Nc1cccnc1)c1cn[nH]c1` [Compound 87], for which the mortality at 300 ppm is ≥ 75% in assay [1], ≥ 50% in assay [2] and ≥ 75% in assay [3]. In addition, the mortality at 2500 µg/mL in assay [4] was ≥ 80%; in assay [5] it was 100%.

For the compound `CCc1c(C(=O)N(C)c2cccnc2)cnn1CC` [Compound 185], the mortality at 300 ppm is ≥ 75% in assay [1], ≥ 50% in assay [2] and ≥ 75% in assay [3]. Further, the values for the mortality at 2500 µg/mL in assay [4] and in assay [5] were ≥ 80% and 100%, respectively.

Regarding `CN(C(=O)c1cnn(C(F)F)c1C(F)(F)F)c1cccnc1` [Compound 191], the mortality at 300 ppm is ≥ 75% in assay [1], ≥ 75% in assay [3] and ≥ 50% in assay [6]. Besides, the mortality at 2500 µg/mL was ≥ 80% in assay [4] and 100% in assay [5].

On to `Cn1cc(C(=O)Nc2cccnc2)c(C(F)(F)F)n1` [Compound 196], for which the mortality at 300 ppm was ≥ 75% in assay [1], ≥ 50% in assay [2], ≥ 75% in assay [3] and ≥ 50% in assay [6].

For `CCn1ncc(C(=O)N(C)c2cccnc2)c1C(F)(F)F` [Compound 186], the mortality at 300 ppm in assay [1] was ≥ 75%; in assay [2] it was ≥ 50%; in assay [3], ≥ 75%. Moreover, the mortality at 2500 µg/mL in assay [4] was ≥ 80%; in assay [5], 100%.

As for `O=C(Nc1cccnc1)c1cnn(-c2ccc([N+](=O)[O-])cc2)c1C(F)(F)F` [Compound 199], the mortality at 300 ppm in assay [1] was ≥ 75%; in assay [2], ≥ 50%; in assay [3] it was ≥ 75%; in assay [6], ≥ 50%.

Consider `O=C(Nc1cccnc1)c1cnn(-c2ccccc2Cl)c1C(F)F` [Compound 148], for which the mortality at 300 ppm was ≥ 75% in assay [1], ≥ 50% in assay [2] and ≥ 75% in assay [3]. For the same compound, the results for the mortality at 2500 µg/mL in assay [4] and in assay [5] were ≥ 80% and 100%, respectively.

In the case of `O=C(Nc1cccnc1)c1cn(C(F)F)nc1C(F)F` [Compound 194], the mortality at 300 ppm in assay [1] is ≥ 75%; in assay [2] it was ≥ 50%; in assay [3], ≥ 75%. The mortality at 2500 µg/mL is ≥ 80% in assay [4] and 100% in assay [5].

With `Cc1c(C(=O)N(C)c2cccnc2)cnn1C(F)F` [Compound 220], the mortality at 300 ppm in assay [1] is ≥ 75%; in assay [2], ≥ 50%; in assay [3], ≥ 75%; in assay [6], ≥ 50%. The mortality at 2500 µg/mL in assay [4] was ≥ 80%; in assay [5] it was 100%.

For the compound `Cn1nc(C(F)(F)F)c(C(=O)Nc2cccnc2)c1F` [Compound 78], in assay [6], the mortality at 300 ppm is ≥ 50%.

For `Cn1cc(C(=O)Nc2cccnc2)c(OC(F)F)n1` [Compound 110], the mortality at 300 ppm in assay [1] was ≥ 75%; in assay [2] it was ≥ 50%; in assay [3], ≥ 75%. For the same compound, the mortality at 2500 µg/mL in assay [4] is ≥ 80%; in assay [5], 100%.

With `Cc1ccccc1-n1ncc(C(=O)Nc2cccnc2)c1C(F)F` [Compound 156], the values for the mortality at 300 ppm in assay [1], in assay [2] and in assay [3] were ≥ 75%, ≥ 50% and ≥ 75%, respectively. For the same compound, the mortality at 2500 µg/mL in assay [4] is ≥ 80%; in assay [5], 100%.
